# In patent US20110105382A1, “CALMODULIN-BINDING PEPTIDES THAT REDUCE CELL PROLIFERATION IN CANCER AND SMOOTH MUSCLE PROLIFERATION DISEASES” (priority 2007, published 2011):
# Where no end group is shown, it is not given here.
# Key:
# primary mouse aortic SMC [1] = type: cell-based; conditions: for proliferation of primary mouse aortic SMC (MTT), TAT-fused peptides: 100 μM, MTT after 2 days
# Experimental: (§1) Cell culture conditions The isolation and culture of primary mouse aortic VSMC have was performed according to methods previously described (Afroze T, Yang L L, Wang C, Gros R, Kalair W, Hogue A N, Mungrue I N, Zhu Z, Husain M. Calcineurin-independent regulation of plasma membrane Ca2+ ATPase-4 in the vascular smooth muscle cell cycle. Am J Physiol Cell Physiol. July 2003; 285(1):C88-95). VSMCs were grown in DMEM (GIBCO/BRL, Gaithersburg, Md.) supplemented with 10% FBS (Hyclone, Logan, Utah), 50 ng/mL platelet-derived growth factor (PDGF, Sigma) and 1% penicillin-streptomycin (GIBCO/BRL). For serum starvation, cells were grown to 60% to 70% confluence, washed twice with PBS, and cultured in starvation medium (0.25% FBS-supplemented DMEM) for 72 hours to achieve Go arrest. Progression to G1/S was brought about by stimulation with 10% FBS and 50 ng/mL PDGF for 24 hours. Cells and reagents for primary human aortic VSMC culture were purchased from Cascade Biologics. Human VSMC(C-007-5C) were grown in Medium 231 with Smooth Muscle Growth Supplement (SMGS) S-007-25 and 1% penicillin-streptomycin (GIBCO/BRL). Cyclin E1/E2 double knockout mouse embryonic fibroblasts (MEF) were kindly provided by Dr. P. Sicinski (Harvard Medical School), and maintained in DMEM with 10% FBS (Hyclone) and 1% penicillin-streptomycin (GIBCO/BRL). Go arrest of MEF was achieved by starvation for 48 h in medium lacking FBS. Mouse embryonic fibroblasts (MEF) were maintained for normal culture in 10% FBS-supplemented DMEM. For the starvation of MEF, cells were cultured in starvation medium without FBS for 48 hours to achieve Go arrest. HeLa (human cervical cancer cell), Saos-2 (human osteosarcoma cell) and A549 (human lung cancer cell) were cultured in 10% FBS-supplemented DMEM.
# (§2) MTT colorimetric survival assay. Active mitochondria of living cells can cleave MTT to produce formazan, the amount of which is directly proportional to the number of living cells. Cell survival was assessed (Denizot, 1986). Cells in 96-well plate were washed two times with PBS followed by 4 hr of incubation at 37° C. with 1 mg/ml of MTT (in phenol red free DMEM supplemented with 2 mM of L-glutamine & 1 mM of sodium pyruvate) in a reaction volume of 100 μl. After removing MTT solution, DMSO was added to dissolve formazan crystals. Plate was shaken for 5 min at 55° C. for complete dissolve. Dye absorbance in viable cells was measured at 570 nm with 630 nm as a reference wavelength. All experiments were repeated at least 3 times, and each experimental condition was repeated in at least quadruplicate wells in each experiment.
# (§3) Nucleofection. For peptides delivery via Nucleofector technology, 1×10^6 cells were harvested, resuspended in 100 μl of Nucleofector solution (for VSMC: Cat. No. VPI-1004; for MEF: Cat. No.: VPD-1005, both provided by Amaxa GmBH, Köln, Germany) and mixed with 100 nmole (in 10 μl) of each peptide. The cell solution was transferred into a kit-provided cuvette and positioned into a Nucleofector device. Subsequently, the transfection was performed with a single pulse using the preprogrammed nucleofection program (A-33 for VSMC; T-20 for MEF) according to the manufacturer's recommendation. Following nucleofection, the cells were transferred into 96-well plate (2K or 5K cells per well for MTT assay) or T25 culture flasks (for FACS analysis) containing pre-warmed stem cell medium using kit-provided plastic pipettes to prevent cell damage and the cells were cultured at 37° C. in 5% CO2.
# cyclin E/CDK2 = molecular target: T1, cyclin E/CDK2 (Mus musculus, UniProt P0DP26); test: Histone H1 in vitro kinase assay; type: biochemical; conditions: G1/S-synchronized mouse VSMC, each peptide 100 μM
# T1 construct: endogenous in cells; host or cells: primary mouse aortic VSMC (G1/S-synchronized), immunoprecipitated complexes
# Experimental: Immunoprecipitation and kinase assays. 5×10^6 SMC were harvested and re-suspended with 2 ml of lysis buffer (50 mM Tris (pH 7.4), 250 mM NaCl, 5 mM EDTA, 0.1% NP-40, 0.5 mM DTT, 0.1 mM Na3VO4, 5 μg/ml leupeptin, 5 μg/ml aprotinin, 2 mM PMSF, and 10% glycerol). After homogenization, cell lysates were clarified by centrifugation at 12×10^3 rpm, 4° C. for 30 min, and the supernatant was collected. An aliquot was taken for protein concentration determination using the BCA protein assay kit (Sigma). Cell extracts (200 μg) were then incubated for 2 hr at 4° C. with saturating concentrations of polyclonal antibodies (Abs). […]
# For the in vitro kinase assays, 20 μl of kinase reaction mixture (20 mM Tris (pH 7.4), 5 mM MgCl2, 2.5 mM MnCl2, 1 mM DTT, 10 μg of C-terminal of human Rb protein (Upstate Biotech.) or 4 μg of histone-H1 (Upstate Biotech.) as substrates, 13 μM ATP, and 2.4 μCi [γ-^32P]ATP (Amersham Pharmacia)) was added to CDK2-, cyclin E-, or cyclin A-immunoprecipitated (IPd) complexes after removing the washing buffer from GammaBind™ G Sepharose resin. Based on the total calcium content of kinase reaction mixtures (as determined by inductively coupled plasma atomic emission spectrometry), amounts of EGTA required to yield final concentrations of free Ca^2+ ion (0, 100 or 500 nM) were calculated by WinMaxC (http://www.stanford.edu/˜cpatton/winmaxc2.html). […]
# primary mouse aortic SMC [2] = test: Lactate dehydrogenase (LDH) cytotoxicity assay; type: cell-based; conditions: nucleofection, 1 mM, asynchronized cells
# Experimental: Lactate dehydrogenase (LDH) assay. To measure the level of cytotoxicity, LDH based in vitro toxicology assay kit (Sigma, Cat. No.: TOX-7) was used (Legrand, 1992). After nucleofection of peptides, 10^6 cells were grown on 24-well plate in the presence of phenol red free DMEM. 3 days later, 500 μl of cell culture media was collected from each well for assay followed by centrifugation (12,000 rpm, 30 min, at 4° C.) to remove any cell debris completely. Subsequent procedures for enzymatic assay were performed according to manufacture's protocol.
# as §3, with “Following nucleofection, the cells were transferred into 96-well plate (2K or 5K cells per well for MTT assay) or T25 culture flasks (for FACS analysis) containing pre-warmed stem cell medium using kit-provided plastic pipettes to prevent cell damage and the cells were cultured at 37° C. in 5% CO2.” left out
# [3] = system: HeLa (human cervical cancer cell); test: MTT proliferation assay, HeLa; type: cell-based; conditions: 100 μM, MTT after 2 days
# Experimental: as §1, §2
# [4] = system: Saos-2 (human osteosarcoma); test: MTT proliferation assay, Saos-2; type: cell-based; conditions: 100 μM, MTT after 2 days
# Experimental: as §1, §2
# [5] = system: A549 (human lung cancer cell); test: MTT proliferation assay, A549; type: cell-based; conditions: 100 μM, MTT after 2 days
# Experimental: as §1, §2
# [6] = system: mouse carotid artery injury model; test: Mouse carotid artery injury model (wire denudation); type: in vivo; conditions: truncated peptides, arteries harvested 14 days following injury
# Experimental: Injury of mouse carotid arteries (wire denudation) and local administration of CBS peptide. The mice (8-12 weeks, 20-25 g) were anesthetized with i.p. Ketamine (100 mg/kg, MTC Pharmaceuticals, Cambridge, ON, Canada) and Xylazine (10 mg/kg, Bayer Inc., Etobicoke, ON, Canada). Surgical procedures were performed under a dissecting microscope (MZ6 Leica, Heerbrugg, Switzerland). The left carotid artery was exposed via a midline incision on the ventral side of the neck. The bifurcation of the carotid artery was located and two ligatures were placed around the external carotid artery. This vessel was then tied off with the distal ligature. […] An incision hole is made between the two ligatures of external carotid artery, through which the denudation device is introduced. This device consists of a curved flexible copper wire (0.3 mm diameter) which is passed down to the common carotid artery, and under rotation, passed along this segment four times. The wire was then removed, and the external carotid artery was tied off proximal to the incision hole with the proximal ligature. […]
# Tissue processing and analysis. […] Images were analyzed by planimetry using Image J software. […] Medial mass was calculated subtracting the luminal from whole area. […]
# [7] = system: primary human aortic VSMC; test: 3H-thymidine incorporation assay, human aortic VSMC; type: cell-based; conditions: 10 and 100 μM for 1.0 h, 72 h after treatment
# Experimental: Cell culture conditions The isolation and culture of primary mouse aortic VSMC have was performed according to methods previously described (Afroze T, Yang L L, Wang C, Gros R, Kalair W, Hogue A N, Mungrue I N, Zhu Z, Husain M. Calcineurin-independent regulation of plasma membrane Ca2+ ATPase-4 in the vascular smooth muscle cell cycle. Am J Physiol Cell Physiol. July 2003; 285(1):C88-95). VSMCs were grown in DMEM (GIBCO/BRL, Gaithersburg, Md.) supplemented with 10% FBS (Hyclone, Logan, Utah), 50 ng/mL platelet-derived growth factor (PDGF, Sigma) and 1% penicillin-streptomycin (GIBCO/BRL). For serum starvation, cells were grown to 60% to 70% confluence, washed twice with PBS, and cultured in starvation medium (0.25% FBS-supplemented DMEM) for 72 hours to achieve Go arrest. Progression to G1/S was brought about by stimulation with 10% FBS and 50 ng/mL PDGF for 24 hours. Cells and reagents for primary human aortic VSMC culture were purchased from Cascade Biologics. […]
# ^3H-thymidine incorporation proliferation assay. […] Cells were grown at 37° C. and analyzed at 24, 48 and 72 h after ^3H-thymidine exposure. […] Solubilized contents of wells were removed and added to 2.5 ml of scintillation fluid (ReadySafe™ Cocktail, Beckman Coulter, Product No. 141349). Radioactivity was measured in a scintillation counter (Beckman Coulter, LS 6500).
sequence,measurement,setting,value
"FAFGRQVNKARSEKALGVSDRT [scrambled, reference compound]",proliferation of primary mouse aortic SMC (MTT),primary mouse aortic SMC [1]; peptide delivered via nucleofection,no effect
GGAEFSARSRKRKANVTVFLQD [CBS],inhibition of in vitro cyclin E/CDK2 activity,cyclin E/CDK2,40%
same,cell death (LDH assay),primary mouse aortic SMC [2],did not cause any increase in cell death
same,maximum level of inhibition of VSMC proliferation,primary mouse aortic SMC [1],50%
"RRRQRRKKRG [TAT domain, reference compound]","proliferation of primary mouse aortic SMC (MTT), TAT-fused peptides",primary mouse aortic SMC [1],no anti-proliferative effect
same,proliferation of HeLa cells (MTT),[3],no anti-proliferative effect
same,proliferation of Saos-2 cells (MTT),[4],no anti-proliferative effect
same,proliferation of A549 cells (MTT),[5],no anti-proliferative effect
RRRQRRKKRGAEFSARSRKRKANVTVFL (N-terminal TAT peptide; listed as Homo sapiens) [TAT-SEQ ID NO:2 (#3-20)],"proliferation of primary mouse aortic SMC (MTT), TAT-fused peptides",primary mouse aortic SMC [1],most powerfully and efficiently
same,"anti-proliferative effect on the site of injury (media mass, I/M ratio)",[6],anti-proliferative effect
same,proliferation of HeLa cells (MTT),[3],most powerfully and efficiently
same,proliferation of Saos-2 cells (MTT),[4],most powerfully and efficiently
same,proliferation of A549 cells (MTT),[5],most powerfully and efficiently
RRRQRRKKRGVTVFL (N-terminal TAT cell-penetrating peptide; listed as Homo sapiens) [TAT-SEQ ID NO:2(#16-20)],"anti-proliferative effect on the site of injury (media mass, I/M ratio)",[6],anti-proliferative effect
RRRQRRKKRGEFSARSRKRKANVTVF (N-terminal TAT peptide; listed as Homo sapiens) [TAT-SEQ ID NO:2 (#4-19)],"proliferation of primary mouse aortic SMC (MTT), TAT-fused peptides",primary mouse aortic SMC [1],started to lose its proliferative function
same,proliferation of HeLa cells (MTT),[3],started to lose its proliferative function
same,proliferation of Saos-2 cells (MTT),[4],started to lose its proliferative function
same,proliferation of A549 cells (MTT),[5],started to lose its proliferative function
"RRRQRRKKRGVDIDQARLKMLGQTRPHDDDDC [TAT-NC, reference compound]","3H-thymidine incorporation (S-phase entry), human aortic VSMC",[7],not
